We go through nine molecules from US12472193B2, “Methods and compositions for treating and preventing respiratory related diseases and conditions with xylitol-headgroup lipid analogs” (National Jewish Health, priority 2017, dated 2025).

“Also recorded” adds a separate entry of the source.

In assay [1] the target is T1, TLR 2/1 (Mus musculus, UniProt Q9EPQ1+Q9QUN7).
T1 construct: endogenous in cells; host or cells: RAW264.7 (ATCC)
Nature of the assay: Pam3Cys-induced TNFα release by RAW264.7 cells (TLR 2/1 antagonism). The assay is classed as cell-based. The note with it: for suppression of TLR 2/1 activation (TNFα release): Pam3Cys, 4 hours; for TLR2/1 antagonist activity: reduction in cytokine secretion vs activating TLR ligand alone. On the procedure: (§1) The mouse macrophage cell line, RAW264.7, was obtained from ATCC and maintained in DMEM, supplemented with 10% bovine growth serum and 1× penicillin streptomycin. Cells were maintained at 37° C. with 5% carbon dioxide: 95% air atmosphere within the incubator. Experiments were completed in a 96-well plate where cells were seated at a density of 1×10^5 cells per well, 24 prior to stimulation with TLR agonists and antagonists. Lipids were dried under a stream of nitrogen, hydrated with phosphate-buffered saline (PBS) at 37° C. for one hour, followed by water bath sonication to create liposomes. Each condition for cell stimulation and antagonism was prepared in DMEM in a separate tube and consisted of: control, TLR agonist, TLR agonist+lipid, and lipid alone. 100 μL aliquots of medium+agonists+antagonists were added to each well and incubated at 37° C. for 4 hours. Subsequently, the media were collected, diluted and an enzyme-linked immunosorbent assay (ELISA) was performed to quantify TNFα release by cells.
The ability of xylitol lipid analogs to suppress the activation of TLR 2 heterodimers was assessed. Pam3Cys was used to selectively stimulate TLR 2/1 signaling in RAW264.7 cells and MALP-2 was used as a TLR 2/6 selective agonist also in RAW264.7 cells. RAW264.7 cells were stimulated with Pam3Cys in the absence, or presence of PX lipids for 4 hours. Following incubation, media were collected, diluted and analyzed for TNFα release as a consequence of TLR activation. Results for analog activity against TLR 2/1 activation was assessed at two concentrations of phospholipid and are summarized in FIGS. 4A and 4B.
Initially, activity of xylitol lipid analogs was assessed at 100 μg/mL and it was unclear whether there was a real antagonist effect especially when compared to POPG. Experiments were repeated with a 200 μg/mL concentration of lipid to determine the ability of PX lipids to suppress TLR 2/1 activation in the presence of Pam3Cys. […] DPPX could have an effect on TLR 2/1 signaling at high concentrations.

Assay [2] addresses T2, TLR 9 (Mus musculus, UniProt Q9EQU3).
T2 construct: RAW264.7 cells secrete TNF-α in response to the TLR9 agonist CpG; endogenous in cells; host or cells: RAW264.7 (ATCC)
T2 sequence (Q9EQU3 26-1032): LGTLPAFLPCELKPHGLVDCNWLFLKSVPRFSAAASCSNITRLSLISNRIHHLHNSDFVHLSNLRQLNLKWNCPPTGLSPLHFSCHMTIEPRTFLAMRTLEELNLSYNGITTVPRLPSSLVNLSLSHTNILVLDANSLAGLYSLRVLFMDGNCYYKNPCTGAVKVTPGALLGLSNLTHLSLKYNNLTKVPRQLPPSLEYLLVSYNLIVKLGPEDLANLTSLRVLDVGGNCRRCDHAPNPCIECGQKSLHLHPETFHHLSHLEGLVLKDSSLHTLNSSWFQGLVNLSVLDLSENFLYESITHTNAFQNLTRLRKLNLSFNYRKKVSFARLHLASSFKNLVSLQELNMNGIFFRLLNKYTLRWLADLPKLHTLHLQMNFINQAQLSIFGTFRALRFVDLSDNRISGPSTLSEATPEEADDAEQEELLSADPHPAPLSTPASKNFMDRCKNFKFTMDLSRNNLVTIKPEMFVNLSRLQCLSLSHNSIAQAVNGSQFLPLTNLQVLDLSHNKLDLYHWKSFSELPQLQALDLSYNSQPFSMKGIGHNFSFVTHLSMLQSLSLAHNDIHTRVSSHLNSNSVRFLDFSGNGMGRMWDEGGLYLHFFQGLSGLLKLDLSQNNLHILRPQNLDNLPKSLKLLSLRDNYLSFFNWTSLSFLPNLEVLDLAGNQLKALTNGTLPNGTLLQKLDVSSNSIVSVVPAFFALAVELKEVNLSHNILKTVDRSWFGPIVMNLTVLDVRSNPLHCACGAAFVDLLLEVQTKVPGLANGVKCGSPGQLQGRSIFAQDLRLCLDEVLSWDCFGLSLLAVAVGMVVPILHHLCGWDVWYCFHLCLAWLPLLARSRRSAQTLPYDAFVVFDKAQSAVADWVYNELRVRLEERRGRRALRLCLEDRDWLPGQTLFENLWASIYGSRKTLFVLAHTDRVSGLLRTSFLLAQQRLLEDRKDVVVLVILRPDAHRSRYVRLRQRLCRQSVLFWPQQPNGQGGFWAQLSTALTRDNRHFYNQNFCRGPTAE
Briefly: CpG-induced TNFα secretion by RAW264.7 cells (TLR 9 antagonism). The assay is classed as cell-based. The settings on record: for antagonism of TLR 9 activation (TNFα secretion): 5 μg/mL CpG, 100 μg/mL phospholipid, 5.5 hours; for TLR9 antagonist activity: reduction in cytokine secretion vs activating TLR ligand alone. On the procedure: as §1
TLR 9 is another member of the intracellular TLRs found in the endosomal compartment. It detects unmethylated CpG sequences in DNA molecules commonly found among bacteria and DNA viruses (H. Hemmi, et al., “A Toll-like receptor recognizes bacterial DNA.,” Nature, vol. 408, no. 6813, pp. 740-5, December 2000; J. Lund, et al, “Toll-like receptor 9-mediated recognition of Herpes simplex virus-2 by plasmacytoid dendritic cells.,” J. Exp. Med., vol. 198, no. 3, pp. 513-20, August 2003). To test antagonism activity of PX lipids against TLR 9, RAW264.7 cells were stimulated for 5.5 hours with 5 μg/mL CpG in the absence or presence of 100 μg/mL phospholipid. […] The action of CpG is not affected by POPC, POPG, or many of the xylitol phospholipids, such as 14:0 DEPX, DSPX and 18:1 DEPX.

T1 sequence (Q9QUN7 25-784): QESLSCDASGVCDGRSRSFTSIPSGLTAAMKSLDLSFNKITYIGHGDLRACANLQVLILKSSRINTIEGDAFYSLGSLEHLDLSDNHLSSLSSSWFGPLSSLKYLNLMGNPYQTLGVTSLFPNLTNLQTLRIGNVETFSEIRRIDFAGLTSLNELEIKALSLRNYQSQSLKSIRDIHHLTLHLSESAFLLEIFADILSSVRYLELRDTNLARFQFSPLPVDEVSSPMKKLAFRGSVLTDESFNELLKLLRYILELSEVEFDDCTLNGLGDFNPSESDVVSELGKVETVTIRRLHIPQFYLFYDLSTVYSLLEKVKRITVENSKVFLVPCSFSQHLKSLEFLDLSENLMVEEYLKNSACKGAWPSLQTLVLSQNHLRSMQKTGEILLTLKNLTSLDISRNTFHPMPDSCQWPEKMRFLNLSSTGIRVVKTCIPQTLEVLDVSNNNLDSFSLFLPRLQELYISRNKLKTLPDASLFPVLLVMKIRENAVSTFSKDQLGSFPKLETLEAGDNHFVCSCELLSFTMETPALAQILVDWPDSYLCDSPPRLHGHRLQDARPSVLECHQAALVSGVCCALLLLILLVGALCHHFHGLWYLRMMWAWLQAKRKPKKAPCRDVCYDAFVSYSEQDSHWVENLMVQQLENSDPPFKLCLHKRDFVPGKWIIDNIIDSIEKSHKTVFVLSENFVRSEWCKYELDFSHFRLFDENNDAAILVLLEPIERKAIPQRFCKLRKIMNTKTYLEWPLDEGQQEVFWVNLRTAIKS
T1 sequence (Q9EPQ1 25-795 limits assumed): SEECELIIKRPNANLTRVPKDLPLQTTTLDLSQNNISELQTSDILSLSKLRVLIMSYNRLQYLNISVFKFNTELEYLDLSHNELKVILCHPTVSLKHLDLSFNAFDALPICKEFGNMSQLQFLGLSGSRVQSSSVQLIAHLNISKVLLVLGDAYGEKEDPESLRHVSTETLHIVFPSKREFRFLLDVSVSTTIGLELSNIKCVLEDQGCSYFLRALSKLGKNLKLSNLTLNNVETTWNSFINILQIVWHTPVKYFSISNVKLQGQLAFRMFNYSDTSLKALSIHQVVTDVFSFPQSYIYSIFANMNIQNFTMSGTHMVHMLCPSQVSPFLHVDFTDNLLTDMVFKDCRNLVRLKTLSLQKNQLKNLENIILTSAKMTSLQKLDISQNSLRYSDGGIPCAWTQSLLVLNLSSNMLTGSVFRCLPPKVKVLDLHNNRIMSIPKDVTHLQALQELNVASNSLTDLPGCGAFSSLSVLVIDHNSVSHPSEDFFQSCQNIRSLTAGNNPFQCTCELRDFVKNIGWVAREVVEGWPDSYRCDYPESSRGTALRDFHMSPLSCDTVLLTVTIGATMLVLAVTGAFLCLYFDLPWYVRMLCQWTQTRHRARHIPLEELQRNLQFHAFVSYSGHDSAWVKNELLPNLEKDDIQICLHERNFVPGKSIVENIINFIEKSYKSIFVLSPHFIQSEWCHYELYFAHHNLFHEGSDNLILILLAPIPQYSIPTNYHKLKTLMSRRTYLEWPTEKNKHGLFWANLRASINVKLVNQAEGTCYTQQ

As for `CCCCCCCCCCCCCCCC(=O)OCC(COP(=O)(O)OCC(O)C(O)C(O)CO)OC(=O)CCCCCCCCCCCCCCC` (stereo not drawn) [DPPX, sn-1-palmitoyl, sn-2-palmitoyl sn-3 glycerol phosphoxylitol], the “suppression of TLR 2/1 activation (TNFα release)” value (“suppression of TLR 2/1 activation” below) in assay [1] (200 μg/mL lipid) is reported as “weakly effective”.
Turning to `CCCCCCC=CCCCCCCCC(=O)OCC(COP(=O)(O)OCC(O)C(O)C(O)CO)OC(=O)CCCCCCCC=CCCCCCC` (mixture of isomers) [16:1 DPPX, sn-1-palmitoleoyl, sn-2-palmitoleoyl sn-3 glycerol phosphoxylitol], the “suppression of TLR 2/1 activation” value is listed as “did not appear to suppress activation” in assay [1] (100 μg/mL lipid) and “inhibit TLR2/1 activation to almost the same extent as the bioactive lipid POPG; also recorded: strongly suppressed; also recorded: suppressed TLR 2/1 activation” in assay [1] (200 μg/mL lipid). For the same molecule, in assay [1], the TLR2/1 antagonist activity result is “+ (cutoff being greater than a 50% reduction in cytokine secretion compared to activating TLR ligand alone)”.
For the molecule `CCCCCCCCCCCCCCCCCC(=O)OCC(COP(=O)(O)OCC(O)C(O)C(O)CO)OC(=O)CCCCCCCCCCCCCCCCC` (stereo not drawn) [DSPX, sn-1-stearoyl, sn-2-stearoyl sn-3 glycerol phosphoxylitol], the “suppression of TLR 2/1 activation” value in assay [1] (100 μg/mL lipid) is on record as “ineffective at both concentrations”; in assay [1] (200 μg/mL lipid), “not effective antagonists”. In addition, the “antagonism of TLR 9 activation (TNFα secretion)” value (shortened to “antagonism of TLR 9 activation”) in assay [2] is “not affected”.
Regarding `CCCCCCCCCCCCCCOC[C@H](COP(=O)(O)OCC(O)C(O)C(O)CO)OCCCCCCCCCCCCCC` (mixture of isomers) [14:0 DEPX, sn-1-O-myristyl, sn-2-O-myristyl sn-3 glycerol phosphoxylitol], the “suppression of TLR 2/1 activation” value in assay [1] (100 μg/mL lipid) is reported as “modest antagonists”; in assay [1] (200 μg/mL lipid) it was “inhibit TLR2/1 activation to almost the same extent as the bioactive lipid POPG; also recorded: strongly suppressed; also recorded: suppressed TLR 2/1 activation”. The TLR2/1 antagonist activity result in assay [1] is reported as “+ (cutoff being greater than a 50% reduction in cytokine secretion compared to activating TLR ligand alone)”. Moreover, in assay [2], the “antagonism of TLR 9 activation” value is “not affected”.
For `CCCCCC=CCC=CCCCCCCCC(=O)OCC(COP(=O)(O)OCC(O)C(O)C(O)CO)OC(=O)CCCCCCCC=CCC=CCCCCC` (mixture of isomers) [18:2 DLPX, sn-1-linoleoyl, sn-2-linoleoyl sn-3 glycerol phosphoxylitol], the “suppression of TLR 2/1 activation” value in assay [1] (100 μg/mL lipid) is reported as “modest antagonists”; in assay [1] (200 μg/mL lipid), “strongly suppressed; also recorded: suppressed TLR 2/1 activation”; in assay [1] (200 μg/mL lipid, listed as 18:2 DEPX), “inhibit TLR2/1 activation to almost the same extent as the bioactive lipid POPG”. Besides, the TLR2/1 antagonist activity entry in assay [1] is recorded as “+ (cutoff being greater than a 50% reduction in cytokine secretion compared to activating TLR ligand alone)”. The “antagonism of TLR 9 activation” value in assay [2] is “effective against TLR 9 activation; also recorded: only effective antagonists of TLR 9 activation”. The TLR9 antagonist activity entry in assay [2] is listed as “+ (cutoff being greater than a 50% reduction in cytokine secretion compared to activating TLR ligand alone)”.
Turning to `CCCCCCCCCCCCCC(=O)OC[C@H](COP(=O)(O)OCC(O)C(O)C(O)CO)OC(=O)CCCCCCCCCCCCC` (mixture of isomers) [DMPX, sn-1-myristoyl, sn-2-myristoyl sn-3 glycerol phosphoxylitol], the “suppression of TLR 2/1 activation” value is on record as “ineffective at both concentrations” in assay [1] (100 μg/mL lipid) and “not effective antagonists” in assay [1] (200 μg/mL lipid). The “antagonism of TLR 9 activation” value in assay [2] is listed as “acts as an agonist for TLR9 activation”.
The like results for `CCCCCCCC/C=C\CCCCCCCC(=O)O[C@H](COC(=O)CCCCCCCCCCCCCCC)COP(=O)([O-])OCC[N+](C)(C)C` [POPC, 1-palmitoyl-2-oleoyl-sn-glycero-3-phosphocholine, reference compound] were, in that order, “unaffected”, “unaffected” and “not affected”.
For the molecule `CCCCCCCC/C=C\CCCCCCCC(=O)O[C@H](COC(=O)CCCCCCCCCCCCCCC)COP(=O)(O)OCC(O)C(O)C(O)CO` (stereo partly drawn) [POPX, sn-1-palmitoyl, sn-2-oleoyly sn-3 glycerol phosphoxylitol], the “suppression of TLR 2/1 activation” value in assay [1] (100 μg/mL lipid) was “modest antagonists”. The “suppression of TLR 2/1 activation” value in assay [1] (200 μg/mL lipid) is recorded as “inhibit TLR2/1 activation to almost the same extent as the bioactive lipid POPG; also recorded: strongly suppressed; also recorded: suppressed TLR 2/1 activation”. Further, the TLR2/1 antagonist activity result in assay [1] is on record as “+ (cutoff being greater than a 50% reduction in cytokine secretion compared to activating TLR ligand alone)”. Further, in assay [2], the “antagonism of TLR 9 activation” value was “reduce the TNF-α secretion to control levels; also recorded: inhibits; also recorded: effective against TLR 9 activation; also recorded: only effective antagonists of TLR 9 activation” and the TLR9 antagonist activity entry is reported as “+ (cutoff being greater than a 50% reduction in cytokine secretion compared to activating TLR ligand alone)”.
Regarding `CCCCCCCCC=CCCCCCCCC(=O)OCC(COP(=O)(O)OCC(O)C(O)C(O)CO)OC(=O)CCCCCCCC=CCCCCCCCC` (mixture of isomers) [DOPX, sn-1-oleoyl, sn-2-oleoyl sn-3 glycerol phosphoxylitol], the “suppression of TLR 2/1 activation” value in assay [1] (100 μg/mL lipid) is “modest antagonists”. In assay [1] (200 μg/mL lipid), the “suppression of TLR 2/1 activation” value is “inhibit TLR2/1 activation to almost the same extent as the bioactive lipid POPG; also recorded: strongly suppressed; also recorded: suppressed TLR 2/1 activation”. Moreover, the TLR2/1 antagonist activity entry in assay [1] is listed as “+ (cutoff being greater than a 50% reduction in cytokine secretion compared to activating TLR ligand alone)”. In assay [2], the “antagonism of TLR 9 activation” value is “reduce the TNF-α secretion to control levels; also recorded: inhibits; also recorded: effective against TLR 9 activation; also recorded: only effective antagonists of TLR 9 activation” and the TLR9 antagonist activity result is on record as “+ (cutoff being greater than a 50% reduction in cytokine secretion compared to activating TLR ligand alone)”.
